Measurements reported in patent US20060069132A1, “Azolecarboxamide herbicides” (priority 2004, published 2006).

Assays:
wheat = experiment: Test B postemergence herbicide test; type: in vivo, Triticum aestivum; parameters: key to Wheat plant response rating: 0 = no effect, 100 = complete control
Description: (§1) At the same time, plants selected from these crop and weed species and also blackgrass (Alopecurus myosuroides Huds.), wheat (Triticum aestivum L.) and wild oat (Avena fatua L.) were treated with postemergence applications of test chemicals formulated in the same manner. Plants ranged in height from 2 to 18 cm (1- to 4-leaf stage) for postemergence treatments. Plant species in the flooded paddy test consisted of rice (Oryza sativa L.), small flower umbrella sedge (Cyperus difformis L.), ducksalad (Heteranthera limosa (Sw.) Willd.) and barnyardgrass (Echinochloa crus-galli (L.) Beauv.) grown to the 2-leaf stage for testing. Treated plants and controls were maintained in a greenhouse for 13 to 15 days, after which time all species were compared to controls and visually evaluated. Plant response ratings, summarized in Table B, are based on a scale of 0 to 100 where 0 is no effect and 100 is complete control. A dash (-) response means no test result.

pigweed = experiment: Test B pre-/postemergence herbicide test; type: in vivo, Amaranthus retroflexus
Text: (§2) Seeds selected from barnyardgrass (Echinochloa crus-galli (L.) Beauv.), Surinam grass (Urochloa decumbens (Staph) R. D. Webster, previously named Brachiaria decumbens Stapf), cocklebur (Xanthium strumarium L.), corn (Zea mays L.), large crabgrass (Digitaria sanguinalis (L.) Scop.), giant foxtail (Setaria faberi Herim.), lambsquarters (Chenopodium album L.), morningglory (Ipomoea coccinea L.), pigweed (Amaranthus retroflexus L.), rice (Oryza sativa L.) and velvetleaf (Abutilon theophrasti Medik.) were planted and treated preemergence with test chemicals formulated in a non-phytotoxic solvent mixture which included a surfactant.
as §1

ducksalad = experiment: Test B flooded paddy test; type: in vivo, Heteranthera limosa; conditions: scale 0 to 100 (0 no effect, 100 complete control)
Description: as §1

wild oat = experiment: Test B postemergence herbicide test; type: in vivo, Avena fatua
Description: as §1

lambsquarters = experiment: Test B pre-/postemergence herbicide test; type: in vivo, Chenopodium album
Text: as §2, §1

large crabgrass = experiment: Test B pre-/postemergence herbicide test; type: in vivo, Digitaria sanguinalis
Text: as §2, §1

Surinam grass = experiment: Test B pre-/postemergence herbicide test; type: in vivo, Urochloa decumbens
Text: as §2, §1

morningglory = experiment: Test B pre-/postemergence herbicide test; type: in vivo, Ipomoea coccinea
Text: as §2, §1

corn = experiment: Test B pre-/postemergence herbicide test; type: in vivo, Zea mays
Text: as §2, §1

[1] = tested on: small flower umbrella sedge; experiment: Test B flooded paddy test; type: in vivo, Cyperus difformis; conditions: scale 0 to 100 (0 no effect, 100 complete control)
Description: as §1

barnyardgrass [2] = experiment: Test B flooded paddy test; type: in vivo, Echinochloa crus-galli; conditions: scale 0 to 100 (0 no effect, 100 complete control)
Description: as §1

rice = experiment: Test B flooded paddy test; type: in vivo, Oryza sativa; conditions: scale 0 to 100 (0 no effect, 100 complete control)
Description: as §1

barnyardgrass [3] = experiment: Test B pre-/postemergence herbicide test; type: in vivo, Echinochloa crus-galli
Text: as §2, §1

blackgrass = experiment: Test B postemergence herbicide test; type: in vivo, Alopecurus myosuroides
Description: as §1

giant foxtail = experiment: Test B pre-/postemergence herbicide test; type: in vivo, Setaria faberi
Text: as §2, §1

velvetleaf = experiment: Test B pre-/postemergence herbicide test; type: in vivo, Abutilon theophrasti
Text: as §2, §1

cocklebur = experiment: Test B pre-/postemergence herbicide test; type: in vivo, Xanthium strumarium
Text: as §2, §1

[4] = 125 g ai/ha, visual rating, scale 0 (no effect) to 100 (complete control), postemergence
[5] = 500 g ai/ha, scale 0 to 100, 0 no effect, 100 complete control, preemergence
[6] = 125 g ai/ha, 0 is no effect, 100 is complete control, preemergence
[7] = postemergence, 500 g ai/ha, scale 0 to 100, 0 is no effect, 100 is complete control
[8] = Postemergence, 500 g ai/ha, scale 0 (no effect) to 100 (complete control)
[9] = postemergence, 125 g ai/ha, scale 0 to 100

CCc1nn(C(C)(C)C)nc1C(=O)Nc1cccc(C(=O)N2CC=CC2)c1 [Compound 366]
Wheat plant response rating (wheat; [4]): 20
Wheat plant response rating (wheat; [5]): 90
Plant response rating (0 to 100 scale), Pigweed (pigweed; [6]): 70
Pigweed plant response rating (pigweed; [4]): 50
Ducksalad plant response rating (ducksalad; 1000 g ai/ha): 100
Oat, Wild plant response rating (wild oat; [4]): 40
Lambsquarters plant response rating (lambsquarters; [4]): 80
Plant response rating (0 to 100 scale), Crabgrass, Large (large crabgrass; [6]): 40
Crabgrass, Large plant response rating (large crabgrass; [4]): 10
Crabgrass, Large plant response rating (large crabgrass; [7]): 20
Plant response rating (0 to 100 scale), Surinam Grass (Surinam grass; [6]): 30
Surinam Grass plant response rating (Surinam grass; [4]): 10
Plant response rating (0 to 100 scale), Morningglory (morningglory; [6]): 30
Plant response rating (0 to 100 scale), Corn (corn; [6]): 40
Corn plant response rating (corn; [4]): 10
Corn plant response rating (corn; [7]): 20
Sedge, Umbrella plant response rating ([1]; 1000 g ai/ha): 90
Barnyardgrass plant response rating (barnyardgrass [2]; 1000 g ai/ha): 80
Rice plant response rating (rice; 1000 g ai/ha): 70
Plant response rating (0 to 100 scale), Barnyardgrass (barnyardgrass [3]; [6]): 70
Barnyardgrass plant response rating (barnyardgrass [3]; [4]): 10
Barnyardgrass plant response rating (barnyardgrass [3]; [7]): 10
Blackgrass plant response rating (blackgrass; [4]): 40
Blackgrass plant response rating (blackgrass; [7]): 50
Plant response rating (0 to 100 scale), Foxtail, Giant (giant foxtail; [6]): 50
Foxtail, Giant plant response rating (giant foxtail; [4]): 20
Foxtail, Giant plant response rating (giant foxtail; [7]): 40
Plant response rating (0 to 100 scale), Velvetleaf (velvetleaf; [6]): 0
Velvetleaf plant response rating (velvetleaf; [4]): 10
Plant response rating (0 to 100 scale), Cocklebur (cocklebur; [6]): 0
Cocklebur plant response rating (cocklebur; [4]): 30
Cocklebur plant response rating (cocklebur; [7]): 50

C=Cc1nn(C(C)(C)C)nc1C(=O)Nc1cccc(C(=O)N(C)C)c1 [Compound 445]
Wheat plant response rating (wheat; [5]): 100
Wheat plant response rating (wheat; [8]): 50
Wheat plant response rating (wheat; [9]): 30
Pigweed plant response rating (pigweed; [8]): 60
Pigweed plant response rating (pigweed; [9]): 50
Ducksalad plant response rating (ducksalad; 125 g ai/ha): 80
Oat, Wild plant response rating (wild oat; [8]): 60
Oat, Wild plant response rating (wild oat; [9]): 40
Lambsquarters plant response rating (lambsquarters; [8]): 80
Lambsquarters plant response rating (lambsquarters; [9]): 60
Crabgrass, Large plant response rating (large crabgrass; [8]): 40
Crabgrass, Large plant response rating (large crabgrass; [9]): 30
Surinam Grass plant response rating (Surinam grass; [8]): 30
Surinam Grass plant response rating (Surinam grass; [9]): 20
Morningglory plant response rating (morningglory; [8]): 80
Morningglory plant response rating (morningglory; [9]): 60
Corn plant response rating (corn; [8]): 40
Corn plant response rating (corn; [9]): 20
Sedge, Umbrella plant response rating ([1]; 125 g ai/ha): 80
Barnyardgrass plant response rating (barnyardgrass [2]; 125 g ai/ha): 90
Rice plant response rating (rice; 125 g ai/ha): 80
Barnyardgrass plant response rating (barnyardgrass [3]; Postemergence, 125 g ai/ha, scale 0 (no effect) to 100 (complete control)): 30
Barnyardgrass plant response rating (barnyardgrass [3]; [8]): 40
Blackgrass plant response rating (blackgrass; [8]): 50
Blackgrass plant response rating (blackgrass; [9]): 40
Foxtail, Giant plant response rating (giant foxtail; [8]): 30
Foxtail, Giant plant response rating (giant foxtail; [9]): 30
Velvetleaf plant response rating (velvetleaf; [8]): 50
Velvetleaf plant response rating (velvetleaf; [9]): 50
Cocklebur plant response rating (cocklebur; [8]): 80
Cocklebur plant response rating (cocklebur; [9]): 40
